From patent US8202885B2, “Bridged six-membered ring compounds” (Actelion Pharmaceuticals Ltd., priority 2007, dated 2012)
“And” between values parts separate entries of the source, which are not always exact repeats. Equal entries are not always repeated.

Test system: human Cav3.1 Cav3.2 or Cav3.3 channel
Experiment: In vitro assay T channel (FLIPR calcium fluorescence)
Type: cell-based
Details: HEK293 cells expressing human Cav3.1, Cav3.2 or Cav3.3; 10 mM Ca2+-induced fluo-4 fluorescence; determined up to 10 μM; read-out: T channel antagonistic activity IC50
Method in brief: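 IC50 (nM) is the antagonist concentration halving the area under the fluorescence peak evoked by 10 mM Ca2+, relative to vehicle, with testing up to 10 μM. Fluo-4-loaded HEK293 cells expressing each human Cav3 subtype received compound 3 min before Ca2+ addition (TEA-based buffer, pH 7.2); signal monitored 8 min at 2 s intervals.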

Row | Molecule | IC50
1 | CC(C)C(=O)O[C@@]1(CCN(C)CCCc2cnc3ccccc3c2)C[C@H]2CC[C@@H]1C=C2c1ccccc1 (relative stereo) [Example 49A, rac-Isobutyric acid (1R*,2R*,4R*)-2-{2-[methyl-(3-quinolin-3-yl-propyl)-amino]-ethyl}-5-phenyl-bicyclo[2.2.2]oct-5-en-2-yl ester] | 8.5 µM
2 | COc1ccc2[nH]c(CCCN(C)CC[C@]3(OC(=O)C(C)C)C[C@H]4CC[C@@H]3C=C4c3ccccc3)nc2c1 (relative stereo) [Example 29A, rac-Isobutyric acid (1R*,2R*,4R*)-2-(2-{[3-(5-methoxy-1H-benzoimidazol-2-yl)-propyl]-methyl-amino}-ethyl)-5-phenyl-bicyclo[2.2.2]oct-5-en-2-yl ester] | 4.51 µM
3 | CN(CCCc1nc2ccccc2[nH]1)CC[C@]1(O)C[C@H]2CC[C@@H]1C=C2c1cccnc1 (relative stereo) [Example 9, rac-(1R*,2R*,4R*)-2-(2-{[3-(1H-Benzoimidazol-2-yl)-propyl]-methyl-amino}-ethyl)-5-pyridin-3-yl-bicyclo[2.2.2]oct-5-en-2-ol] | > 10 µM
4 | CC(C)C(=O)O[C@]1(CCN(C)CCCc2nc3ccccc3[nH]2)C[C@@H]2CC[C@H]1CN2c1ccccc1 [Example 74A, Isobutyric acid (1S,4S,5R)-5-(2-{[3-(1H-benzoimidazol-2-yl)-propyl]-methyl-amino}-ethyl)-2-phenyl-2-aza-bicyclo[2.2.2]oct-5-yl ester] | 8.6 µM
5 | CC(C)C(=O)Oc1cccc2nc(CCCN(C)CC[C@]3(OC(=O)C(C)C)C[C@H]4CC[C@@H]3C=C4c3ccccc3)[nH]c12 (relative stereo) [Example 34A, rac-Isobutyric acid (1R*,2R*,4R*)-2-(2-{[3-(7-isobutyryloxy-1H-benzoimidazol-2-yl)-propyl]-methyl-amino}-ethyl)-5-phenyl-bicyclo[2.2.2]oct-5-en-2-yl ester] | 4.33 µM
6 | CC(C)C(=O)O[C@@]1(CCN(C)CCCc2nc3ccccc3[nH]2)C[C@H]2CC[C@@H]1C[C@]21OCc2ccccc21 (relative stereo) [Example 80A, rac-Isobutyric acid (1R*,2S*,4R*,5R*)-5-(2-{[3-(1H-benzoimidazol-2-yl)-propyl]-methyl-amino}-ethyl)-3′H-spiro(bicyclo[2.2.2]octane-2,1′-isobenzofuran)-5-yl ester] | 4.18 µM
7 | Cc1ccc(C2=C[C@H]3CC[C@@H]2C[C@]3(CCN(C)CCCc2nc3ccccc3[nH]2)OC(=O)C(C)C)cc1 (relative stereo) [Example 6A, rac-Isobutyric acid (1R*,2R*,4R*)-2-(2-{[3-(1H-benzoimidazol-2-yl)-propyl]-methyl-amino}-ethyl)-5-(4-methyl-phenyl)-bicyclo[2.2.2]oct-5-en-2-yl ester] | 6.83 µM
8 | COC(=O)c1ccc2[nH]c(CCCN(C)CC[C@]3(OC(=O)C(C)C)C[C@H]4CC[C@@H]3C=C4c3ccccc3)nc2c1 (relative stereo) [Example 20A, rac-2-(3-{[2-((1R*,2R*,4R*)-2-Isobutyryloxy-5-phenyl-bicyclo[2.2.2]oct-5-en-2-yl)-ethyl]-methyl-amino}-propyl)-1H-benzoimidazole-5-carboxylic acid methyl ester] | 4.57 µM
9 | CC(C)C(=O)O[C@@]1(CCN(C)CCc2nc3ccccc3[nH]2)C[C@H]2CC[C@@H]1C=C2c1ccccc1 (relative stereo) [Example 13A, rac-Isobutyric acid (1R*,2R*,4R*)-2-(2-{[2-(1H-benzoimidazol-2-yl)-ethyl]-methyl-amino}-ethyl)-5-phenyl-bicyclo[2.2.2]oct-5-en-2-yl ester] | 4.34 µM
10 | CC(C)C(=O)OC1(CCN(C)CCCc2nc3ccccc3[nH]2)CC2CCC1CC2c1ccccc1 (racemic) [Example 73A, rac-Isobutyric acid (1R*,2R*,4R*,5S*)-2-(2-{[3-(1H-benzoimidazol-2-yl)-propyl]-methyl-amino}-ethyl)-5-phenyl-bicyclo[2.2.2]oct-2-yl ester and rac-isobutyric acid (1R*,2R*,4R*,5R*)-2-(2-{[3-(1H-benzoimidazol-2-yl)-propyl]-methyl-amino}-ethyl)-5-phenyl-bicyclo[2.2.2]oct-2-yl ester] | 1.75 µM and 2 µM
11 | COc1ccc(C2=C[C@H]3CC[C@@H]2C[C@]3(CCN(C)CCCc2nc3ccccc3[nH]2)OC(=O)C(C)C)cc1 (relative stereo) [Example 22A, rac-Isobutyric acid (1R*,2R*,4R*)-2-(2-{[3-(1H-benzoimidazol-2-yl)-propyl]-methyl-amino}-ethyl)-5-(4-methoxy-phenyl)-bicyclo[2.2.2]oct-5-en-2-yl ester] | 6.93 µM
12 | Cc1cc2cc(CCCN(C)CC[C@]3(OC(=O)C(C)C)C[C@H]4CC[C@@H]3C=C4c3ccccc3)cnc2o1 (relative stereo) [Example 42A, rac-Isobutyric acid (1R*,2R*,4R*)-2-(2-{methyl-[3-(2-methyl-furo[2,3-b]pyridin-5-yl)-propyl]-amino}-ethyl)-5-phenyl-bicyclo[2.2.2]oct-5-en-2-yl ester] | > 10 µM
13 | CN(CCCc1nc2ccccc2[nH]1)CC[C@]1(O)C[C@H]2CC[C@@H]1C=C2c1nccs1 (relative stereo) [Example 24, rac-(1R*,2R*,4R*)-2-(2-{[3-(1H-Benzoimidazol-2-yl)-propyl]-methyl-amino}-ethyl)-5-thiazol-2-yl-bicyclo[2.2.2]oct-5-en-2-ol] | > 10 µM

Other lines, results leading:

Row | IC50 | Molecule
14 | 1.34 µM | rac-(1R*,3R*,4R*)-1,2,3,4,9,10-Hexahydro-3-hydroxy-3-{N-methyl-N-(3-benzimidazol-2-ylpropyl)aminoethyl}-1,4-ethanophenanthrene [Example 18]
15 | 3.18 µM | CC(C)C(=O)O[C@@]1(CCN(C)Cc2nc3ccccc3[nH]2)C[C@H]2CC[C@@H]1C=C2c1ccccc1 (relative stereo) [Example 14A, rac-Isobutyric acid (1R*,2R*,4R*)-2-{2-[(1H-benzoimidazol-2-ylmethyl)-methyl-amino]-ethyl}-5-phenyl-bicyclo[2.2.2]oct-5-en-2-yl ester]
16 | 3.39 µM | COc1cccc2nc(CCN(C)CC[C@]3(OC(=O)C(C)C)C[C@H]4CC[C@@H]3C=C4c3ccccc3)[nH]c12 (relative stereo) [Example 32A, rac-Isobutyric acid (1R*,2R*,4R*)-2-(2-{[2-(7-methoxy-1H-benzoimidazol-2-yl)-ethyl]-methyl-amino}-ethyl)-5-phenyl-bicyclo[2.2.2]oct-5-en-2-yl ester]
17 | 0.935 µM | COc1cccc2c1nc(CCCN(C)CC[C@]1(OC(=O)C(C)C)C[C@H]3CC[C@@H]1C=C3c1ccccc1)n2C (relative stereo) [Example 37A, rac-Isobutyric acid (1R*,2R*,4R*)-2-(2-{[3-(4-methoxy-1-methyl-1H-benzoimidazol-2-yl)-propyl]-methyl-amino}-ethyl)-5-phenyl-bicyclo[2.2.2]oct-5-en-2-yl ester]
18 | 2.51 µM | CCOc1ccc(CCN(CC)CC[C@]2(OC(=O)C(C)C)C[C@H]3CC[C@@H]2C=C3c2ccccc2)cc1OCC (relative stereo) [Example 38A, rac-Isobutyric acid (1R*,2R*,4R*)-2-(2-{[2-(3,4-diethoxy-phenyl)-ethyl]-ethyl-amino}-ethyl)-5-phenyl-bicyclo[2.2.2]oct-5-en-2-yl ester]
19 | 2.75 µM | CC(C)C(=O)O[C@@]1(CCN(C)CCCc2nc3ccccc3[nH]2)C[C@H]2CC[C@@H]1C=C2c1nccs1 (relative stereo) [Example 24A, rac-Isobutyric acid (1R*,2R*,4R*)-2-(2-{[3-(1H-benzoimidazol-2-yl)-propyl]-methyl-amino}-ethyl)-5-thiazol-2-yl-bicyclo[2.2.2]oct-5-en-2-yl ester]
20 | 1.71 µM | COC(=O)c1cccc2[nH]c(CCCN(C)CC[C@]3(OC(=O)C(C)C)C[C@H]4CC[C@@H]3C=C4c3ccccc3)nc12 (relative stereo) [Example 19A, rac-2-(3-{[2-((1R*,2R*,4R*)-2-Isobutyryloxy-5-phenyl-bicyclo[2.2.2]oct-5-en-2-yl)-ethyl]-methyl-amino}-propyl)-1H-benzoimidazole-4-carboxylic acid methyl ester]
21 | 0.839 µM | CC(C)C(=O)O[C@@]1(CCN(C)CCCc2nc3c(OC(F)(F)F)cccc3[nH]2)C[C@H]2CC[C@@H]1C=C2c1ccccc1 (relative stereo) [Example 68A, rac-Isobutyric acid (1R*,2R*,4R*)-2-(2-{methyl-[3-(4-trifluoromethoxy-1H-benzoimidazol-2-yl)-propyl]-amino}-ethyl)-5-phenyl-bicyclo[2.2.2]oct-5-en-2-yl ester]
22 | 2.63 µM | CO[C@@]1(c2ccccc2)C[C@H]2CC[C@@H]1C[C@@]2(CCN(C)CCCc1nc2ccccc2[nH]1)OC(=O)C(C)C (relative stereo) [Example 77A, rac-Isobutyric acid (1R*,2S*,4R*,5S*)-2-(2-{[3-(1H-benzoimidazol-2-yl)-propyl]-methyl-amino}-ethyl)-5-methoxy-5-phenyl-bicyclo[2.2.2]oct-2-yl ester]
23 | 0.68 µM | COc1ccc(C)c2nc(CCCN(C)CC[C@]3(OC(=O)C(C)C)C[C@H]4CCC[C@@H]3C=C4c3ccccc3)[nH]c12 (relative stereo) [Example 66A, rac-Isobutyric acid (1R*,5R*,6R*)-6-(2-{[3-(7-methoxy-4-methyl-1H-benzoimidazol-2-yl)-propyl]-methyl-amino}-ethyl)-8-phenyl-bicyclo[3.2.2]non-8-en-6-yl ester]
24 | 3.31 µM | COc1ccccc1C1=CC2CCC1CC2(O)CCN(C)CCCc1nc2ccccc2[nH]1 (racemic) [Example 23, rac-(1R*,2R*,4R*)-2-(2-{[3-(1H-Benzoimidazol-2-yl)-propyl]-methyl-amino}-ethyl)-5-(2-methoxy-phenyl)-2-yl-bicyclo[2.2.2]oct-5-en-2-ol]
